{"source": "patent US5801182A", "about": "“Amine substituted compounds” (Cell Therapeutics, Inc., priority 1995, dated 1998)", "key": {"[1]": {"test_system": "polymorphonuclear leukocytes", "details": "U.S. Pat. No. 4,636,507; cited from earlier work"}, "[2]": {"test_system": "tumor necrosis factor, TNF", "details": "cited from earlier work"}, "PAPH": {"test_system": "PAPH", "test": "PAPH inhibition / DAG production in TNF-stimulated human mesangial cells", "format": "cell-based", "details": "specific activation pathway that does not involve PI", "description": "These inventive compounds and pharmaceutical compositions are capable of, among other things, inhibiting subspecies of LPAAT and PAPH enzymes with substrate specificity for intermediates with 1,2-diunsaturated and 1-alkyl, 2-unsaturated subspecies. […] In contrast, the inventive compounds affect that subset of PAPH and LPAAT relating to substrates with unsaturated fatty acids other than arachidonate in the sn-2 position, not the housekeeping forms of these enzymes that serve the PI pathway."}, "[3]": {"test_system": "CFU-GM in mouse femoral marrow", "details": "in vivo", "excerpt": "Mouse spleen conditioned-medium, at a concentration of 2%, was used in this assay. The medium and semi-solid culture mix were procured from Stem Cell Technologies in Vancouver, BC."}}, "note": "Read-outs that look alike come from different tables or passages of the source.", "data": [{"molecule": "CC(=O)CCCCn1c(=O)c2c(ncn2C)n(C)c1=O", "note": "[PTX, 1-(5-oxohexyl)-3,7-dimethylxanthine]", "values": [{"measurement": "chemotaxis in polymorphonuclear leukocytes", "setting": "[1]", "result": "enhance chemotaxis"}, {"measurement": "BMT-related complications", "setting": "[2]; co-administered PTX and GM-CSF, allogeneic bone marrow transplant patients", "result": "reduced BMT-related complications"}, {"measurement": "TNF levels", "setting": "[2]; co-administered PTX and GM-CSF, patients undergoing allogeneic bone marrow transplant", "result": "decreased levels of tumor necrosis factor, TNF"}, {"measurement": "TNF levels", "setting": "[2]; normal volunteers", "result": "TNF levels were higher"}, {"measurement": "inhibition of PAPH", "setting": "PAPH", "result": "blocks PAPH"}]}, {"molecule": "O=c1[nH]cc(F)c(=O)[nH]1", "note": "[5-fluorouracil]", "values": [{"measurement": "CFU-GM in mouse femoral marrow", "setting": "[3]", "result": "no CFU-GM were detectable"}]}, {"molecule": "CC(O)CCCCn1c(=O)c2c(ncn2C)n(C)c1=O", "note": "(stereo not shown) [M1, 1-(5-hydroxyhexyl)-3,7-dimethylxanthine]", "values": [{"measurement": "chemotaxis in polymorphonuclear leukocytes", "setting": "[1]", "result": "enhance chemotaxis"}]}]}
